Measured values published in US12215092B2, “Pleiotropic pathway modifier compounds and method of treating diseases” (PPM BIOPHARMA LLC, priority 2023, dated 2025).
“Also recorded” adds a separate entry of the source.

Tests used:
[1] = target: CRBN (Homo sapiens, UniProt Q96SW2); assay: Automatic Western blot (Simple Western), targeted protein degradation: CRBN; format: cell-based; details: 0.001-10 μM, 24 hours
Protocol: (§1) Targeted protein degradation in test samples were determined using the automated capillary-based nanoproteomic immunoassay Simple Western System (Protein Simple). Cultured cells were washed with cold PBS once and lysed in cold RIPA buffer supplemented with protease and phosphatase inhibitors. The solutions were then incubated at 4° C. for 30 minutes with gentle agitation to fully lyse cells. Each test sample was diluted at 0.4 mg/ml and mixed with 5× reducing buffer with fluorescent molecular weight (MW) standards. Afterwards the samples were heated to 95° C. for 5 minutes, and 5 μL samples were loaded into each capillary tube. Proteins were passed and separated through stacking and separation matrices for 30 minutes at 250 V. Proteins were then immobilized to capillary walls using optimal photoactivated capture chemistry. Following proteins immobilization, capillaries were flushed with a wash buffer and incubated with a blocking reagent for 6 min. Each target protein was probed with a specific primary antibody (diluted in blocking buffer and incubated for 38 min) and a horseradish peroxidase (HRP)-conjugated secondary antibody (ready to use solutions, incubated for 23 min). […] The resulting chemiluminescent signal was captured by a CCD camera, and signal intensities were analyzed using Compass Software (Protein Simple). […]

[2] = target: Eos (Homo sapiens, UniProt Q9H2S9); assay: Automatic Western blot (Simple Western), targeted protein degradation: Eos; format: cell-based; details: 0.001-10 μM, 24 hours
Protocol: as §1

[3] = test system: Poly (I:C) induced PBMC; assay: Luminex-based multiplex cytokine assay, Poly (I:C) induced PBMC; format: cell-based, human; details: concentration-dependent (FIG. 5)
[4] = target: HDAC2 (Homo sapiens, UniProt Q92769); assay: Automatic Western blot (Simple Western), targeted protein degradation: HDAC2; format: cell-based; details: 0.001-10 μM, 24 hours
Protocol: (§2) Targeted protein degradation in test samples were determined using the automated capillary-based nanoproteomic immunoassay Simple Western System (Protein Simple). Cultured cells were washed with cold PBS once and lysed in cold RIPA buffer supplemented with protease and phosphatase inhibitors. The solutions were then incubated at 4° C. for 30 minutes with gentle agitation to fully lyse cells. Each test sample was diluted at 0.4 mg/ml and mixed with 5× reducing buffer with fluorescent molecular weight (MW) standards. Afterwards the samples were heated to 95° C. for 5 minutes, and 5 μL samples were loaded into each capillary tube. Proteins were passed and separated through stacking and separation matrices for 30 minutes at 250 V. Proteins were then immobilized to capillary walls using optimal photoactivated capture chemistry. Following proteins immobilization, capillaries were flushed with a wash buffer and incubated with a blocking reagent for 6 min. Each target protein was probed with a specific primary antibody (diluted in blocking buffer and incubated for 38 min) and a horseradish peroxidase (HRP)-conjugated secondary antibody (ready to use solutions, incubated for 23 min). A mixture of luminol and peroxide was added following manufacturer's protocol. The resulting chemiluminescent signal was captured by a CCD camera, and signal intensities were analyzed using Compass Software (Protein Simple).
(§3) 1H929 or Jurkat cells were treated with DMSO, the positive control pomalidomide (an FDA-approved immunomodulatory agent) or the selected test compound (compound 4) at indicated concentrations (0.001-10 μM) for 24 hours. […] Ikaros and other proteins (Table 1),

[5] = target: Aiolos (Homo sapiens, UniProt Q9UKT9); assay: Automatic Western blot (Simple Western), targeted protein degradation: Aiolos; format: cell-based; details: 0.001-10 μM, 24 hours
Protocol: as §1

[6] = test system: GAPDH; assay: Automatic Western blot (Simple Western): GAPDH (sample loading control); format: cell-based, human; details: 0.001-10 μM, 24 hours
Protocol: as §2, §3

[7] = test system: human solid tissue cancer cells; assay: Cancer cell proliferation assay (CellTiter-Glo), solid tumors; format: cell-based; details: 3 days, concentration-dependent (FIG. 1)
Protocol: (§4) The cell proliferation of cancer cells was assessed using the CellTiter-Glo Luminescent Cell Viability Assay (Promega), per the manufacturer's protocol.
(§5) Briefly, in 96-well flat-bottom white-walled multiwell cell culture plates the control wells containing 100 μL/well medium without cells were used to obtain a value for background luminescence. For treatment wells, cells were seeded at 5,000 in 50 μL/well of complete RPMI-1640 medium and then mixed with 50 μL/well of the vehicle control (0.1% DMSO) or test compounds at indicated concentrations. Following cell incubation for 3 days at 37° C. in a humidified 5% CO2 incubator, the plates were equilibrated at room temperature for approximately 30 minutes. 100 μL of CellTiter-Glo® Reagent were added into each well and then contents were mixed for 2 minutes on an orbital plate shaker to induce cell lysis. After the plates were incubated at room temperature for 10 minutes, luminescent signals of each well were recorded with a Tecan M200 Plate Reader (Tecan Trading AG, Switzerland).
(§6) The following human cancer cells originated from various tissues were used to test the antiproliferative activity of PPM compounds (Table 2). […] The EC50 values for each test compounds were calculated using GraphPad Prizm. […]

[8] = test system: human hematopoietic cancer cells; assay: Cancer cell proliferation assay (CellTiter-Glo), blood cancer cells; format: cell-based; details: 3 days, concentration-dependent (FIG. 2)
Protocol: as §4, §5, §6

[9] = test system: target protein; assay: Targeted protein degradation in H929 and Jurkat cells (overall statement); format: cell-based; details: H929 human multiple myeloma cells and Jurkat human leukemia cells, concentration dependent
Protocol: as §1

[10] = test system: SEB induced PBMC; assay: Luminex-based multiplex cytokine assay, SEB induced PBMC; format: cell-based, human; details: concentration-dependent (FIG. 7)
[11] = test system: HDAC; assay: In situ HDAC activity fluorometric assay in cancer cells; format: cell-based, human; details: 24 h treatment, concentration dependent (FIG. 8)
Protocol: In Situ HDAC Activity Fluorometric Kit was purchased from Abcam and performed according to the manufacturer instructions. The cells (20,000) were seeded in a black walled 96-well plate and let to adhere overnight, then treated with DMSO or PPM compounds at indicated concentrations for 24 hrs. The media was then replaced with an HDAC substrate (acetylated peptide) dissolved in media and cells incubated for 3 hrs under cell culture conditions, followed by addition of the developer for 30 min to stop the reaction. The fluorescence was measured at Ex/Em=368/442 nm.

[12] = target: c-MYC (Homo sapiens, UniProt P01106); assay: Automatic Western blot (Simple Western), targeted protein degradation: c-MYC; format: cell-based; details: for c-MYC in H929 cells (targeted protein degradation / expression): H929 human myeloma cells
Protocol: as §2, §3

[13] = target: Ikaros (Homo sapiens, UniProt Q13422); assay: Automatic Western blot (Simple Western), targeted protein degradation: Ikaros; format: cell-based; details: 0.001-10 μM, 24 hours
Protocol: as §2, §3

[14] = test system: LPS induced PBMC; assay: Luminex-based multiplex cytokine assay, LPS induced PBMC; format: cell-based, human; details: concentration-dependent (FIG. 6)

Sequence of c-MYC (P01106 whole entry): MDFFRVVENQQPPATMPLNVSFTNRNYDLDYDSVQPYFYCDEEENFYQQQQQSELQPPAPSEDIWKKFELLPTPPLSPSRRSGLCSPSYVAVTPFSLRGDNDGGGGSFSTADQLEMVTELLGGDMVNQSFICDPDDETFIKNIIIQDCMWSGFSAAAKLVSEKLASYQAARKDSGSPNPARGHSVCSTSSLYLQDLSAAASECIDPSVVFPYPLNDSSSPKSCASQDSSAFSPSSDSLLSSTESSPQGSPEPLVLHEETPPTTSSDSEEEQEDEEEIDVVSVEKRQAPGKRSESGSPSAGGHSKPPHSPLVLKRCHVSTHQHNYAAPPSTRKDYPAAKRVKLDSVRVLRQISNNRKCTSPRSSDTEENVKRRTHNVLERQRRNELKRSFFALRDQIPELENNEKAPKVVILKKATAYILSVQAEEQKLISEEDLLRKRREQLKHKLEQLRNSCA
Sequence of HDAC2 (Q92769 whole entry): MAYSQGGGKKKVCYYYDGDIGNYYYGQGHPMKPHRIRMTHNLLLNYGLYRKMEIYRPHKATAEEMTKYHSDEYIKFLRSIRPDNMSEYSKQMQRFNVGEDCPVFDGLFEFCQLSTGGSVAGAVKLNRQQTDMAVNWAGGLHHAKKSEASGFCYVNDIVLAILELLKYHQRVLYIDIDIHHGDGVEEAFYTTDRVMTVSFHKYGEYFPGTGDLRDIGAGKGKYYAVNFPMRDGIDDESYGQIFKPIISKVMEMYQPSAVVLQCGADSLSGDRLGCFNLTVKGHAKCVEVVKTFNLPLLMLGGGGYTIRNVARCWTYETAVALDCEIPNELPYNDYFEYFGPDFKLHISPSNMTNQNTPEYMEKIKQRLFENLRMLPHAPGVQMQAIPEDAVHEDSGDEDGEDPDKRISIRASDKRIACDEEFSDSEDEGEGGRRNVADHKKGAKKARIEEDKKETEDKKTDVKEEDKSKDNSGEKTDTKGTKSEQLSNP
Sequence of Ikaros (Q13422 whole entry): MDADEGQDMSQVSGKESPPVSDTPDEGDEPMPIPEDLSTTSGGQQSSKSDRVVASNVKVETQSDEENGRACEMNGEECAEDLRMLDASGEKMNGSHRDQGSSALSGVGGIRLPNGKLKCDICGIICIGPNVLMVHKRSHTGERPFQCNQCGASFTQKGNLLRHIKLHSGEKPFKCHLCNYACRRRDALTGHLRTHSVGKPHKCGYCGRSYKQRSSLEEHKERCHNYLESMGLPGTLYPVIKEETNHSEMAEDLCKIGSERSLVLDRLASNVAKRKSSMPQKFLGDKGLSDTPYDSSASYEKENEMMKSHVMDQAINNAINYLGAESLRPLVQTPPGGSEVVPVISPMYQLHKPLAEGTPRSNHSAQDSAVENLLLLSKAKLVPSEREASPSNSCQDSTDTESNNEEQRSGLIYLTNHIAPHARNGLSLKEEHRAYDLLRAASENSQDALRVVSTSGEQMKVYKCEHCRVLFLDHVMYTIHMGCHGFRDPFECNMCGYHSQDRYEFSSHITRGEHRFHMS
Sequence of CRBN (Q96SW2 whole entry): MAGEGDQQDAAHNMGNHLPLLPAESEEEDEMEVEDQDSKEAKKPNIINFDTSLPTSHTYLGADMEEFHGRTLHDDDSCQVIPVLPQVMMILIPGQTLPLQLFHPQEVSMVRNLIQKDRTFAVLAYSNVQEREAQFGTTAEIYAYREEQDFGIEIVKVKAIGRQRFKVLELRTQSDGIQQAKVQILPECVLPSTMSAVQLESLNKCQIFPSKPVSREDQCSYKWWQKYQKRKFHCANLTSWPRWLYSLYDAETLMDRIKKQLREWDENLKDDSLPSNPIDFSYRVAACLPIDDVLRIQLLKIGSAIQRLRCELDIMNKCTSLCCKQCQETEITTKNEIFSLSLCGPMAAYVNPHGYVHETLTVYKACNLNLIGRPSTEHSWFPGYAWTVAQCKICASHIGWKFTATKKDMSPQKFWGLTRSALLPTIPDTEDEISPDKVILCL
Sequence of Aiolos (Q9UKT9 whole entry): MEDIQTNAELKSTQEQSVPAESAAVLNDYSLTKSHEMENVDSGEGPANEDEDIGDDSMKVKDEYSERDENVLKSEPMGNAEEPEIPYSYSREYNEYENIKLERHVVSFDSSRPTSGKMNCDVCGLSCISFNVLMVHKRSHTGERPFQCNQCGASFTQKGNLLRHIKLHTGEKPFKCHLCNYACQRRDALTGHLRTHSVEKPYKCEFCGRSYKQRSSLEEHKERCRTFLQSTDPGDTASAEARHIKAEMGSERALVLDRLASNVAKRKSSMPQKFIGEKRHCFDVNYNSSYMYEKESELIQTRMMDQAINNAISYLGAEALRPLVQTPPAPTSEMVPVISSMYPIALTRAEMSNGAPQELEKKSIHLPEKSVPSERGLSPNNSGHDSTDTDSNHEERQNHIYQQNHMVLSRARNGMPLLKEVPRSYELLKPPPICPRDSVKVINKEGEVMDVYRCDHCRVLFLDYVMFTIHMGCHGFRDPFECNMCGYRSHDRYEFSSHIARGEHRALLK
Sequence of Eos (Q9H2S9 whole entry): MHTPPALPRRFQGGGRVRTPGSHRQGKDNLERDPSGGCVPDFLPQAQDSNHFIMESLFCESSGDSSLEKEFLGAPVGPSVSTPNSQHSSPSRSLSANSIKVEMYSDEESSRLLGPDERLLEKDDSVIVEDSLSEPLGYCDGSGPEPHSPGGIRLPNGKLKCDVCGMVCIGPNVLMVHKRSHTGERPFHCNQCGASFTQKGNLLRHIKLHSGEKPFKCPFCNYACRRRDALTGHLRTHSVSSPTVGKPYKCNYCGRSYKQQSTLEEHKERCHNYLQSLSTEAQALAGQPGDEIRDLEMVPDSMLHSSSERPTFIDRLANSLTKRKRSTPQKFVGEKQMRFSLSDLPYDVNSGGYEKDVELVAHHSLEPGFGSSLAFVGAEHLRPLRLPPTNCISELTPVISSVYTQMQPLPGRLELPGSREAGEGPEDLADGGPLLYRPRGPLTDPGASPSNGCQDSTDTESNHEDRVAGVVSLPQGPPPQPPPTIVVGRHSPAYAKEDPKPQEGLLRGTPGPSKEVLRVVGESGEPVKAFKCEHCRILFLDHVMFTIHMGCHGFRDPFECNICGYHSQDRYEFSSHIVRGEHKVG

Question: How did the “CRBN in H929 cells (targeted protein degradation)” value ([1]; H929 cells) turn out when O=C(CCCCc1ccc(C(=O)NCc2ccc3c(c2)CN(C2CCC(=O)NC2=O)C3=O)cc1)NO (stereo not drawn) [Compound 4, N-((2-(2,6-dioxopiperidin-3-yl)-1-oxoisoindolin-5-yl)methyl)-4-(5-(hydroxyamino)-5-oxopentyl)benzamide] was run?
Answer: The value was “degraded”.

Question: And the “CRBN in Jurkat cells (targeted protein degradation)” value ([1]; Jurkat cells)?
Answer: Its value is “degraded”.

Question: What about the “Eos in Jurkat cells (targeted protein degradation)” value [2] of the same compound?
Answer: Its value is “degraded”.

Question: And the “cytokine production from Poly (I:C) induced PBMC” value [3]?
Answer: Its value is “suppressed cytokine production”.

Question: And the “HDAC2 in H929 cells (targeted protein degradation / expression)” value [4]?
Answer: The value was “reduced c-MYC and HDAC expression; also recorded: reduced HDAC2 expression”.

Question: What about the “HDAC2 in H929 cells (targeted protein degradation / expression)” value ([4]; listed as compound 4) of the same compound?
Answer: Its value is “degraded”.

Question: And the “levels of HDAC2” value ([4]; H929 or Jurkat cells)?
Answer: Its value is “clearly reduced”.

Question: And the “HDAC2 in Jurkat cells (targeted protein degradation)” value ([4]; Jurkat cells)?
Answer: The value was “degraded”.

Question: And the “Aiolos in Jurkat cells (targeted protein degradation)” value [5]?
Answer: Its value is “degraded”.

Question: What about the “GAPDH in H929 cells (expression, loading control)” value [6] of the same compound?
Answer: Its value is “no effect”.

Question: What about the “GAPDH in H929 cells (expression, loading control)” value ([6]; listed as compound 4) of the same compound?
Answer: The value was “No effect”.

Question: What about the “GAPDH in Jurkat cells (expression, loading control)” value ([6]; Jurkat cells) of the same compound?
Answer: The value was “No effect”.

Question: And the “proliferation of human solid tissue cancer cells” value [7]?
Answer: The value was “selectively suppressed the proliferation”.

Question: What about the “proliferation of human hematopoietic cancer cells” value [8] of the same compound?
Answer: Its value is “selectively suppressed the proliferation”.

Question: And the target protein degradation [9]?
Answer: Its target protein degradation is “caused target protein degradation”.

Question: What about the “cytokine production from SEB induced PBMC” value [10] of the same compound?
Answer: The value was “enhanced cytokine production”.

Question: What about the “intracellular HDAC activity in human cancer cells” value [11] of the same compound?
Answer: The value was “inhibit intracellular HDAC activity; also recorded: suppressed intracellular HDAC activity”.

Question: And the “Compound-induced c-MYC degradation after pretreatment with the proteosome inhibitor bortezomib” value ([12]; H929 cells, bortezomib pretreatment)?
Answer: The value was “prevented”.

Question: What about the “c-MYC in H929 cells (targeted protein degradation / expression)” value ([12]; 0.001-10 μM, 24 hours) of the same compound?
Answer: The value was “reduced c-MYC and HDAC expression”.

Question: What about the “c-MYC in H929 cells (targeted protein degradation / expression)” value ([12]; 0.001-10 μM, 24 hours, listed as compound 4) of the same compound?
Answer: Its value is “degraded”.

Question: What about the “levels of c-MYC” value ([12]; H929 or Jurkat cells, 0.001-10 μM, 24 hours) of the same compound?
Answer: Its value is “clearly reduced”.

Question: And the “c-MYC in Jurkat cells (targeted protein degradation)” value ([12]; Jurkat cells, 0.001-10 μM, 24 hours)?
Answer: The value was “degraded”.

Question: What about the “Ikaros in H929 cells (targeted protein degradation)” value ([13]; H929 cells) of the same compound?
Answer: The value was “degraded”.

Question: And the “levels of Ikaros” value ([13]; H929 or Jurkat cells)?
Answer: Its value is “clearly reduced”.

Question: What about the “Ikaros in Jurkat cells (targeted protein degradation / expression)” value [13] of the same compound?
Answer: The value was “reduced Ikaros expression”.

Question: What about the “Ikaros in Jurkat cells (targeted protein degradation / expression)” value ([13]; listed as compound 4) of the same compound?
Answer: Its value is “degraded”.

Question: What about the “cytokine production from LPS induced PBMC” value [14] of the same compound?
Answer: Its value is “suppressed cytokine production”.
